According to patent US20200323213A1, “Methods of use for compositions comprising biguanide compound and diol surfactant” (3M INNOVATIVE PROPERTIES COMPANY, priority 2014, published 2020):

What was measured:
[1] = tested on: Staphylococcus aureus strain 15981; experiment: Antimicrobial efficacy test: survival of planktonic S. aureus after short exposure; format: cell-based; conditions: 0.1wt-% of CHG, alone or in combination with DYNOL (text summary, matches Table 4)
Description: The composition described herein can reduce and eliminate Staphylococcus aureus and Pseudomonas aeruginosa. Those of ordinary skill in the art will readily determine when a composition provides antimicrobial activity using assay and bacterial screening methods well known in the art. For example, the compositions can be evaluated utilizing Antimicrobial Efficacy Test described in the Examples Section. Briefly, a bacterial suspension is introduced into a liquid composition. After a sufficient contact time, the sample containing the exposed bacteria is collected, placed in neutralizing broth, a sample is taken and diluted, and plated on growth medium. The plated sample is incubated at an appropriate temperature and humidity for twenty four to forty-eight hours and the number of viable bacterial colonies growing on the plate is counted. Once colonies have been counted the reduction in the number of bacteria caused by the test composition is readily determined. Bacterial reduction is generally reported as log10 reduction determined by the difference between the log10 of the initial inoculum count (i.e. the control) and the log10 of the inoculum count after exposure. […]

[2] = cited from earlier work

N=C(NCCCCCCNC(=N)NC(=N)Nc1ccc(Cl)cc1)NC(=N)Nc1ccc(Cl)cc1.O=C(O)[C@H](O)[C@@H](O)[C@H](O)[C@H](O)CO.O=C(O)[C@H](O)[C@@H](O)[C@H](O)[C@H](O)CO [CHG, chlorhexidine digluconate] showed a log10 reduction [1] of 0.32.
In the case of CC(=O)O.CC(=O)O.NC(=N\CCCCCC/N=C(N)/N=C(\N)Nc1ccc(Cl)cc1)/N=C(\N)Nc1ccc(Cl)cc1 [diacetate], the “solubility in aqueous fluid” value [2] is listed as 1.9 g/100 ml.
